Reference: patent US8778974B2, “Trisubstituted 1,2,4 triazoles” (Janssen Pharmaceutica NV, priority 2008, dated 2014)

Legend:
[1] = molecular target: T1, hα7-wt nAChR-expressing GH4Cl cells (Homo sapiens, UniProt P36544); assay: Patch-clamp current recording (whole-cell), potentiation of choline 1 mM response, PAM type; assay type: cell-based; parameters: key to Pam type: Type 0 compounds minimally enhance the effect size of the current elicited by 1 mM choline.; Type 1 compounds enhance the effect size of the current elicited by 1 mM choline but minimally alter the kinetics of the receptor.; Type 2 compounds enhance the effect size of the current elicited by 1 mM choline while reducing the rate and/or the extent of desensitization.; Type 3 compounds enhance the effect size of the current elicited by 1 mM choline. When tested at higher concentrations up to 10 μM they completely inhibit desensitization, in particular a 1 mM choline application of 250 milliseconds.; Type 4 compounds allow for an initial desensitization of the receptor followed by a re-opening of the receptor during agonist application; conditions: for EC50: according to Ex. D.2, "<5" = no top plateau reached at maximal concentration, read-out: Potency (pEC50) (converted); for Pam type: patch-clamp current recording, 1 mM choline
T1 construct: expressed in transfected cells
Method: The compounds of the present invention are classified as type 1-4, based on qualitative kinetic properties, as determined by whole-cell voltage-clamp recordings. This classification is based on the effect of an α7 PAM compound, as described hereinbefore, on the signal elicited by an agonist application. In particular, said agonist is choline at a concentration of 1 mM. In a preferred experimental setting, said α7 PAM compound and choline are simultaneously applied to the cell, as described hereinafter. Desensitization is defined as the closure of the receptor upon activation during the application of the agonist in whole-cell voltage-clamp electrophysiology measurements seen as the reduction of the […] current after initial activation by the agonist.
The definition of the PAM types 1-4 is described hereinafter: • Type 0 compounds minimally enhance the effect size of the current elicited by 1 mM choline. • Type 1 compounds enhance the effect size of the current elicited by 1 mM choline but minimally alter the kinetics of the receptor. In particular, the rate and the extent of desensitization, elicited by the agonist, is not affected. The compound-modulated response to 1 mM choline, therefore, is a close to linear scaling of the 1 mM choline response in absence of the α7 PAM compound. • Type 2 compounds enhance the effect size of the current elicited by 1 mM choline while reducing the rate and/or the extent of desensitization. • Type 3 compounds enhance the effect size of the current elicited by 1 mM choline. […] At low-potency concentrations of the α7 PAM compound, the agonist-induced activation, which is followed by desensitization, can still be separated from the compound-induced re-opening as an initial inward current-maximum. At higher potency concentrations of the α7 PAM compound, the re-opening occurs faster than the closure due to desensitization so that the initial current-maximum disappears.
Patch-clamp Current Recording
Patch-clamp recording from mammalian cells has provided a powerful means of assessing the function of membrane-bound proteins thought to be subunits of ligand-gated ion channels. Activation of such proteins by endogenous or exogenous ligands cause opening of a pore associated with the receptor through which ions flow down their electrochemical gradient. In the case of the hα7-wt nAChR-expressing GH4Cl recombinant cell line the preferential permeability to calcium of this receptor means that calcium flows into the cell upon activation by ACh, choline and other nicotinic ligands giving rise to a calcium current. Since this receptor rapidly desensitizes in the presence of agonist it is important an application system is used which is capable of very rapid switching of solutions (<100 ms) to prevent partial or full desensitisation of receptor responses coincident with the time of agonist application. Consequently, a second convenient technique to assess the enhancement of nicotinic efficacy is patch-clamp recording from hα7-wt nAChR-expressing GH4Cl cells coupled with a rapid-application system.
• a) Assay buffers • The external recording solution consisted of 152 mM NaCl, 5 mM KCl, 1 mM MgCl2, 1 mM Calcium, 10 mM HEPES; pH 7.3. The internal recording solution consisted of 140 mM CsCl, 10 mM HEPES, 10 mM EGTA, 1 mM MgCl2, pH 7.3. • b) Patch-clamp recording was carried out using a Patch-clamp amplifier (Multiclamp 700A, Axon Instruments, Calif., USA). hα7-wt nAChR-expressing GH4Cl cells were patch-clamp in the whole cell configuration (Hamill et al, 1981) with a borosilicate glass electrode of 1.5-3 MΩ tip resistance when filled with the internal recording solution. Recordings were made on cells with membrane resistance >500 MΩ and more preferably 1GΩ and series resistance <15 MΩ with at least 60% series resistance compensation. […]

T1 sequence (P36544 23-502): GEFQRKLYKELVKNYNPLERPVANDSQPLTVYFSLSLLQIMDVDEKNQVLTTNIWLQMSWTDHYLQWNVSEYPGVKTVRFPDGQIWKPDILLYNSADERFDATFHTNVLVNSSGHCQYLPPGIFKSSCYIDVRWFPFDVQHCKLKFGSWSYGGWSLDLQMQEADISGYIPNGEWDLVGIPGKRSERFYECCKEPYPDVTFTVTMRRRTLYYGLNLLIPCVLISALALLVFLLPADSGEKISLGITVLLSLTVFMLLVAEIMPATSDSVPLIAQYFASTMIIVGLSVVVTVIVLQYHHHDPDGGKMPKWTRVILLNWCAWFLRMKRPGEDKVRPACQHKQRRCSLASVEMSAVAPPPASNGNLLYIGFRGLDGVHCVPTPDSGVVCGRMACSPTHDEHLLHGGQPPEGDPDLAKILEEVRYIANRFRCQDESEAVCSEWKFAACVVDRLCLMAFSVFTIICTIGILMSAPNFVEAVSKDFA

melting point [°C] | SMILES | EC50 [1] [nM] | Pam type [1]
200.2 | Cc1cc(-n2nc(Nc3cc(F)c(F)c(F)c3)nc2C[C@H](C)O)ccn1 [E207] | 1320 | 2
248.8 | Cc1cc(-n2nc(Nc3cccc(Cl)c3F)nc2CC(=O)NC2CC2)cc(C)n1 [E150] | 417 | 2
291.3 | Cc1cc(-n2nc(Nc3ccc4c(c3)OC(F)(F)O4)nc2CC(=O)NC2CCC2)cc(C)n1 [E179] | 97.7 | 1
175.8 | CC[C@@H](O)Cc1nc(Nc2ccc(F)c(F)c2)nn1-c1ccnc(C)c1 [E134] | 1050 | 2
260.9 | Cc1cc(-n2nc(Nc3cccc(C(F)(F)F)c3)nc2CC(=O)NCC2CC2)cc(C)n1 [E177] | 219 | 2
144.1 | CC[C@H](O)Cc1nc(Nc2ccc(F)c(F)c2)nn1-c1cccc(OC)c1 [E149] | 1380 | –
248.3 | Cc1cc(-n2nc(Nc3ccc4c(c3)OC(F)(F)O4)nc2CC(=O)NC2CC2)c(C)cn1 [E160] | 2140 | 2
126.7 | CC[C@H](O)Cc1nc(Nc2cccc(Cl)c2)nn1-c1ccnc(C)c1 [E139] | 324 | 2
237.3 | Cc1cc(-n2nc(Nc3ccc(F)c(F)c3F)nc2CC(=O)NC2CC2)cc(C)n1 [E211] | 372 | 2
177.7 | Cc1cc(-n2nc(Nc3cc(F)c(F)cc3F)nc2C[C@H](C)O)cc(C)n1 [E194] | 5010 | –
138 | Cc1cc(-n2nc(Nc3ccc(F)c(F)c3F)nc2C[C@H](C)O)cc(C)n1 [E189, (alphaS)-1-(2,6-dimethyl-4-pyridinyl)-alpha-methyl-3-[(2,3,4-trifluorophenyl)amino]-1H-1,2,4-triazole-5-ethanol] | 631 | 2
280.9 | CCNC(=O)Cc1nc(Nc2ccc3c(c2)OC(F)(F)O3)nn1-c1cc(C)nc(C)c1 [E200, 3-[(2,2-difluoro-1,3-benzodioxol-5-yl)amino]-1-(2,6-dimethyl-4-pyridinyl)-N-ethyl-1H-1,2,4-triazole-5-acetamide] | 407 | 2
154.7 | CC[C@H](O)Cc1nc(Nc2cc(OC)cc(C(F)(F)F)c2)nn1-c1ccc(C)nc1 [E142] | 182 | 4
278.7 | Cc1cc(-n2nc(Nc3ccc(F)c(F)c3)nc2CC(=O)NCC2CC2)cc(C)n1 [E185] | 468 | 2
249.4 | Cc1cc(-n2nc(Nc3ccc(F)c(F)c3F)nc2CC(=O)NC2CCC2)cc(C)n1 [E212] | 251 | 2
144.2 | CC[C@H](O)Cc1nc(Nc2ccc(F)c(F)c2)nn1-c1cccnc1 [E145] | 2450 | –
270.3 | Cc1cc(-n2nc(Nc3ccc4c(c3)OC(F)(F)O4)nc2CC(=O)NCC2CC2)cc(C)n1 [E201] | 302 | 2
169.4 | CCc1cc(-n2nc(Nc3ccc(F)c(F)c3)nc2C[C@@H](O)CC)ccn1 [E138] | 295 | 2
127.9 | CC[C@H](O)Cc1nc(Nc2cccc(Cl)c2F)nn1-c1ccnc(C)c1 [E173] | 407 | 2
296.8 | CCNC(=O)Cc1nc(Nc2ccc(F)c(F)c2)nn1-c1cc(C)nc(C)c1 [E167, 3-[(3,4-difluorophenyl)amino]-1-(2,6-dimethyl-4-pyridinyl)-N-ethyl-1H-1,2,4-triazole-5-acetamide] | 617 | 2
244.4 | Cc1cc(-n2nc(Nc3cccc(C(F)(F)F)c3F)nc2CC(=O)NC2CC2)cc(C)n1 [E257, N-Cyclopropyl-1-(2,6-dimethyl-4-pyridinyl)-3-[[2-fluoro-3-(trifluoromethyl)phenyl]amino]-1H-1,2,4-triazole-5-acetamide] | – | –

More lines, now with the values behind:

SMILES | melting point [°C] | EC50 [1] [nM] | Pam type [1]
OCCCc1nc(Nc2ccc(F)c(C(F)(F)F)c2)nn1-c1ccncc1Cl [E14] | 152.9 | 3980 | –
C[C@H](O)Cc1nc(Nc2ccc(F)c(C(F)(F)F)c2)nn1-c1ccncc1Cl [E25] | 150.3 | 4790 | 2
Cc1ccc(-n2nc(Nc3cccc(OC(F)(F)F)c3)nc2CCC(=O)N(C)C)cn1 [E75] | 174.3 | 186 | 4
C[C@H](O)Cc1nc(Nc2ccc(F)c(C(F)(F)F)c2)nn1-c1cccc(F)c1 [E18] | 161 | 3310 | –
Cc1cc(-n2nc(Nc3cccc(Cl)c3)nc2C[C@H](C)O)ccn1 [E23] | 185 | 2190 | –
Cc1cc(-n2nc(Nc3ccc(F)c(C(F)(F)F)c3)nc2CC(C)O)ccn1 (stereo not drawn) [E10, 3-[[4-Fluoro-3-(trifluoromethyl)phenyl]amino]-alpha-methyl-1-(2-methyl-4-pyridinyl)-, (alphaS)-1H-1,2,4-triazole-5-ethanol] | 192.7 | 1050 | 2
Cc1cc(-n2nc(Nc3ccc(F)c(C(F)(F)F)c3)nc2C(C)CO)ccn1 (stereo not shown) [E31] | 181.9 | 2240 | 2
COc1ncccc1-n1nc(Nc2cccc(OC(F)(F)F)c2)nc1CCC(=O)N(C)C [E4, 1-(2-Methoxy-3-pyridinyl)-N,N-dimethyl-3-[[3-(trifluoromethoxy)phenyl]amino]-1H-1,2,4-triazole-5-propanamide] | 166.7 | 3800 | –
CNC(=O)CCc1nc(Nc2cccc(OC(F)(F)F)c2)nn1-c1ccnc(C)c1 [E54] | 153.7 | 2290 | 2
CC[C@H](O)Cc1nc(Nc2ccc(F)c(F)c2)nn1-c1cccc(F)c1 [E27] | 158.1 | 1910 | 1
CC[C@H](O)Cc1nc(Nc2ccc(F)c(F)c2)nn1-c1ccc(F)cc1 [E28] | 157.3 | 1910 | 1
COc1ccc(-n2nc(Nc3ccc(F)c(C(F)(F)F)c3)nc2C[C@H](C)O)cc1 [E22] | 188.7 | 851 | 0
CN(C)C(=O)CCc1nc(Nc2ccc(F)c(F)c2)nn1-c1cccc(Cl)c1 [E58] | 165.4 | 339 | –
CN(C)C(=O)CCc1nc(Nc2ccc3c(c2)OC(F)(F)O3)nn1-c1cccnc1Cl [E118] | 195.8 | 692 | –
Cc1cc(-n2nc(Nc3cccc(OC(F)(F)F)c3)nc2CCC(=O)N(C)C)ccn1 [E73] | 215.4 | 135 | 4
CCOC(=O)CCc1nc(Nc2ccc(F)c(F)c2)nn1-c1ccc2c(c1)OCCO2 [E114] | – | 151 | –
COc1ccc(-n2nc(Nc3ccc(F)c(F)c3)nc2CCC(=O)N(C)C)cc1OC [E64] | – | 525 | 4
